Test results from patent US5475136A, “Inhibitors of HIV protease useful for the treatment of AIDS” (Eli Lilly and Company, priority 1992, dated 1995).

Molecular target: T1, HIV-1 protease (Human immunodeficiency virus type 1 group M subtype B, UniProt P04585)
T1 construct: host or cells: E. coli K12 L507/pHP10D
Experiment: biochemical
Settings: read-out: Fluorescence Assay IC50 (converted)
Description: Lyophils of E. coli K12 L507/pHP10D were obtained from the Northern Regional Research Laboratory, Peoria, Ill. 61604, under the accession number NRRL B-18560 (deposited Nov. 14, 1989).
A culture of E. coli K12 L507/pHP10D was grown to mid-log phase at 32° C. in LB media containing 12.5 μg/mL tetracycline. The cultivation temperature was quickly elevated to 40° C. to induce gene expression, and the cells were allowed to grow for 2.5 hours at this temperature before the culture was quickly chilled on ice. The cells were centrifuged and the cell pellet was resuspended in 20 mL 50 mmol MES buffer (pH 6.0) containing 1 mmol EDTA, 1 mmol DTT, 1 mmol PMSF and 10% glycerol ("Buffer A"). Cells were lysed by sonication using a Fischer Model 300 Dismembrator and a microtip probe. […] Res. Commun., 167, 554-560 (1990); the production of the pl peptide (SQNY) was measured.
The active fractions were combined, made 1.2M in ammonium sulfate, and applied to a 2.0×18 cm hexyl agarose column that had been equilibrated in Buffer A containing 1.2M ammonium sulfate. The sample was loaded at a flow rate of 1 mL/min at 4° C., washed with the equilibration buffer for 240 min (1 mL/min) and then eluted using a reverse linear gradient of 1.2-0M ammonium sulfate in Buffer A for 120 min at the same flow rate. The column was then washed isocratically in Buffer A for 120 min. […]

Row | SMILES | IC50 [µM]
1 | CC(=O)N[C@@H](CC(N)=O)C(=O)N[C@@H](CSc1ccc2ccccc2c1)[C@H](O)Cc1ccccc1C(=O)NC(C)(C)C (relative stereo) [Example 1, [2'R-(2'R*,3'R*, 6'S*)]-N(t-butyl)-2-[2'-hydroxy-3'-naphth-2-ylthiomethyl-4',7'-diaza-5',8'-dioxo-6'-(2"-amino-2"-oxoethyl)]nonyl benzamide] | 0.00124
2 | CC(=O)N[C@@H](CC(N)=O)C(=O)N[C@@H](CSc1ccccc1)[C@H](O)Cc1ccccc1C(=O)NC(C)(C)C (relative stereo) [Example 2, [2'R-(2'R*,3'R*,6'S*)]-N(t-Butyl)-2-[2'-hydroxy-3'-phenylthiomethyl-4',7'-diaza-5',8'-dioxo-6'-(2"-amino-2"-oxoethyl)]nonyl benzamide] | 0.0212
